Type in all cases: functional
Assay [1] deals with Staphylococcus aureus. Nature of the assay: Antimicrobial activity against Staphylococcus aureus.
Assay [2] deals with Staphylococcus aureus. Nature of the assay: Antimicrobial activity against methicillin-resistant Staphylococcus aureus.
For assay [3], the system named is Enterococcus faecalis. Nature of the assay: Antimicrobial activity against Enterococcus faecalis.
In assay [4] the test system is Enterococcus faecalis. Kind of assay: Antimicrobial activity against vancomycin-resistant Enterococcus faecalis.
Assay [5] concerns Enterococcus faecium. Kind of assay: Antimicrobial activity against Enterococcus faecium.
Assay [6] relates to Enterococcus faecium. Nature of the assay: Antimicrobial activity against vancomycin-resistant Enterococcus faecium.
In assay [7] the test system is Streptococcus pneumoniae. Nature of the assay: Antimicrobial activity against Streptococcus pneumoniae.
The subject of assay [8] is Streptococcus pneumoniae. Kind of assay: Antimicrobial activity against penicillin-resistant Streptococcus pneumoniae.
For another assay, the system named is Escherichia coli. Kind of assay: Antimicrobial activity against Escherichia coli.
In a further assay the test system is Pseudomonas aeruginosa. Kind of assay: Antimicrobial activity against Pseudomonas aeruginosa.
In a further assay the test system is Burkholderia cepacia. Kind of assay: Antimicrobial activity against Pseudomonas cepacia.
Assay [9] concerns Stenotrophomonas maltophilia. Kind of assay: Antimicrobial activity against Xanthomonas maltophilia.
The test system of another assay is Candida albicans. Kind of assay: Antimicrobial activity against Candida albicans.

≈ marks a conversion by molar mass, not a printed value. Square brackets hold non-standard residues; d marks the D form. Peptide text beside a SMILES is read from it. Orn = NCCC[C@H](N)C(=O)O

As to `CC(C)C[C@@H]1NC(=O)[C@H](CCCN)NC(=O)[C@H](C(C)C)NC(=O)[C@H](Cc2ccc(O)cc2)NC(=O)[C@H](CC(=O)O)NC(=O)[C@H](CC(N)=O)NC(=O)[C@@H](Cc2ccccc2)NC(=O)[C@H](Cc2ccccc2)NC(=O)[C@@H]2CCCN2C(=O)[C@@H](Cc2ccc(O)cc2)NC1=O` [LOLOATIN A], the MIC against Staphylococcus aureus [1], against Staphylococcus aureus [2], in the assay on Enterococcus faecalis [3], with Enterococcus faecalis [4], against Enterococcus faecium [5] and against Enterococcus faecium [6] was 4 µg/mL (≈ 3.14 µM) throughout. The MIC (in general, the lowest concentration that inhibits growth of the organism) in the assay on Streptococcus pneumoniae [7] was 1 µg/mL (≈ 0.785 µM); with Streptococcus pneumoniae [8] it was 2 µg/mL (≈ 1.57 µM); with Escherichia coli, above 32 µg/mL; in the assay with Pseudomonas aeruginosa, above 32 µg/mL; in the assay on Burkholderia cepacia, above 32 µg/mL; in [9] it was above 32 µg/mL. This molecule also registered an MIC in the assay with Candida albicans of 8 µg/mL (≈ 6.28 µM).
On to `CC(C)C[C@@H]1NC(=O)[C@H](CCCN)NC(=O)[C@H](C(C)C)NC(=O)[C@H](Cc2c[nH]c3ccccc23)NC(=O)[C@H](CC(=O)O)NC(=O)[C@H](CC(N)=O)NC(=O)[C@@H](Cc2ccccc2)NC(=O)[C@H](Cc2ccccc2)NC(=O)[C@@H]2CCCN2C(=O)[C@@H](Cc2ccc(O)cc2)NC1=O` [LOLOATIN B], for which the minimum inhibitory concentration (MIC) against Staphylococcus aureus [1], with Staphylococcus aureus [2], against Enterococcus faecalis [3], against Enterococcus faecalis [4], against Enterococcus faecium [5] and in the assay on Enterococcus faecium [6] was 2 µg/mL (≈ 1.54 µM) throughout. Besides, the minimal inhibitory concentration (MIC) is 1 µg/mL (≈ 0.771 µM) in the assay on Streptococcus pneumoniae [7]; 1 µg/mL (≈ 0.771 µM) in the assay with Streptococcus pneumoniae [8]; above 32 µg/mL with Escherichia coli; above 32 µg/mL with Pseudomonas aeruginosa; above 32 µg/mL in the assay with Burkholderia cepacia; above 32 µg/mL in assay [9]. In addition, in the assay on Candida albicans, the MIC was determined as 8 µg/mL (≈ 6.17 µM).
As for `CC(C)C[C@@H]1NC(=O)[C@H](CCCN)NC(=O)[C@H](C(C)C)NC(=O)[C@H](Cc2c[nH]c3ccccc23)NC(=O)[C@H](CC(=O)O)NC(=O)[C@H](CC(N)=O)NC(=O)[C@@H](Cc2ccccc2)NC(=O)[C@H](Cc2c[nH]c3ccccc23)NC(=O)[C@@H]2CCCN2C(=O)[C@@H](Cc2ccc(O)cc2)NC1=O` [LOLOATIN C] (cyclo(DWV[Orn]L[dY]PW[dF]N)), the MIC with Staphylococcus aureus [1] turned out to be 0.5 µg/mL (≈ 0.374 µM); in the assay on Staphylococcus aureus [2], 0.5 µg/mL (≈ 0.374 µM); against Enterococcus faecalis [3] it was 1 µg/mL (≈ 0.749 µM); with Enterococcus faecalis [4], 1 µg/mL (≈ 0.749 µM); in the assay on Enterococcus faecium [5] it was 2 µg/mL (≈ 1.5 µM); with Enterococcus faecium [6], 2 µg/mL (≈ 1.5 µM). Besides, the MIC against Streptococcus pneumoniae [7] is below 0.25 µg/mL; against Escherichia coli, 1 µg/mL (≈ 0.749 µM); against Pseudomonas aeruginosa, above 32 µg/mL; in the assay on Burkholderia cepacia, above 32 µg/mL; in [9] it was above 32 µg/mL; in the assay with Candida albicans, 8 µg/mL (≈ 5.99 µM).
Take `CC(C)C[C@@H]1NC(=O)[C@H](CCCN)NC(=O)[C@H](C(C)C)NC(=O)[C@H](Cc2c[nH]c3ccccc23)NC(=O)[C@H](CC(=O)O)NC(=O)[C@H](CC(N)=O)NC(=O)[C@@H](Cc2ccccc2)NC(=O)[C@H](Cc2ccccc2)NC(=O)[C@@H]2C[C@@H](O)CN2C(=O)[C@@H](Cc2ccc(O)cc2)NC1=O` [LOLOATIN D]: the minimum inhibitory concentration (MIC) in the assay on Staphylococcus aureus [1], in the assay with Staphylococcus aureus [2], in the assay with Enterococcus faecalis [3], with Enterococcus faecalis [4], against Enterococcus faecium [5] and against Enterococcus faecium [6] was 8 µg/mL (≈ 6.1 µM) throughout. Also, the MIC in the assay with Streptococcus pneumoniae [7] was 4 µg/mL (≈ 3.05 µM); with Streptococcus pneumoniae [8] it was 4 µg/mL (≈ 3.05 µM); in the assay with Escherichia coli, above 32 µg/mL; against Pseudomonas aeruginosa, above 32 µg/mL; with Burkholderia cepacia, above 32 µg/mL; in [9], above 32 µg/mL. Besides, in the assay on Candida albicans, the minimal inhibitory concentration (MIC) worked out at 16 µg/mL (≈ 12.2 µM).
